# Reference: patent US12016353B2, “Compositions and methods for aquaculturing” (The State of Israel, Ministry of Agriculture & Rural …, priority 2017, dated 2024)
# Tests used:
# Format in all cases: in vivo, Sparus aurata
# PepT1 [1] = assay: Sustained effect of dietary butyrate on PepT1 mRNA expression in gilthead sea bream; conditions: for PepT1 transcription levels after butyrate feeding had ceased: 6 days after feeding butyrate ceased
# Protocol: (§1) The experimental set up consisted of 200 L circular tanks in a flow through, filtered (10 μm) ambient seawater (40‰) system under a natural photoperiod of about 12 h/12 h (dark/light) where the water temperature ranged between 24.8-25.4° C. Experimental diets were offered to the fish twice a day (9:00; 14:00).
# For determining whether (1) an effect of dietary butyrate on PepT1 transcriptional level is sustained after its supplementation has stopped and (2) to investigate an effect of dietary butyrate on Cdx1b expression. To this end another study was carried out. In this trial, fish having an average weight of 27.14±0.47 g (mean±SEM) were stocked at a density of 30 fish per tank with two replicate tanks per treatment. Fish were fed with the experimental diets (Table 4) including 1% taurine and 0, 0.8 and 1.6% of sodium butyrate for 8 days before its supplementation was stopped and all of the dietary groups started receiving the 0% sodium butyrate containing diet. Four fish from each tank (8 fish per dietary treatment) were sampled for their proximal intestine total RNA at days 9, 12 and 15 of the trial.
# Fish were euthanized with an overdose of MS2-22 (Sigma Aldrich, USA) followed by a swift decapitation and then dissected for the removal of their gastrointestinal tract. For total RNA, the 1st segment of the proximal intestine (approx. 1 cm) was cut, immediately frozen and stored at −80° C. until RNA extraction. For histology, pieces of the proximal intestine (approx. 0.6 cm) were sampled, placed in 15 ml Falcon tubes containing 10% neutral buffered formalin (NBF) and stored at room temperature until processed. For immunohistochemistry (IHC-P) staining, pieces of proximal intestine (approx. 0.6 cm) were sampled, placed in 1.7 ml microcentrifuge tubes containing 4% paraformaldehyde (PFA) and stored at 4° C. for overnight fixation. After fixation, the intestinal samples were rinsed twice and washed three times (10 min each) with PBST 0.8% (PBS with 0.8% Triton x-100, Sigma Aldrich, USA). Following this, the samples were gradually dehydrated by one 5 min wash with 50% methanol in PBST followed by three more washings with 100% methanol and stored in 100% methanol at −20° C. until carrying out the staining procedure. After the removal of the gastrointestinal tract, the remaining carcasses of sampled fish were put into nylon bags and stored at −20° C. until proximate analysis. In order to calculate the gut index (GI), fish were weighed prior to the removal of their gastrointestinal tract. The intestines were separated from the stomach and pyloric caeca and then aligned, by forceps, against a ruler for measuring their length (mm). For each fish, gut index was calculated using the following formula: Gut index=100×Body weight (g)/(intestine length (mm))^3.
# (§2) Total RNA extraction from samples of the proximal intestine was carried out using BioTri reagent (Biolab, Israel) according to the manufacturer's instructions. For determining total RNA quality and concentration, 2 μl from each sample diluted with 18 μl of DEPC treated water (1:10) were loaded onto a 384 well microplate (Greiner Bio-One, Austria). In each sample the 260/280 ratio, 260/230 ratio and RNA concentration were obtained by plate reader and Gen5 software (Synergy HT, BioTek, USA). For each RNA extraction procedure, the integrity of the extracted RNA was evaluated by electrophoresis on 1.2% agarose gel stained with GelRed (Biotium, USA). […]
# PepT1 [2] = assay: PepT1 pattern of expression during the day in gilthead sea bream (10 day trial); conditions: diet with 0.8% sodium butyrate and 1% taurine versus control, FIG. 4
# Protocol: as §1
# Fish having an average weight of 14.49±0.2 g (mean±SEM) were stocked in […] at a density of 30 fish tank^−1 with 5 replicate tanks (assigned as A-E) dietary treatment^−1. During the 10 day trial, fish were offered the experimental diets (Table 4) with 1% taurine and with 0 and 0.8% of sodium butyrate (Sigma Aldrich, USA). […]
# Fish were euthanized with an overdose of MS2-22 (Sigma Aldrich, USA) followed by a swift decapitation and then dissected for the removal of their gastrointestinal tract. […] For each fish, gut index was calculated using the following formula: Gut index=100×Body weight (g)/(intestine length (mm))^3.
# Total RNA extraction from samples of the proximal intestine was carried out using BioTri reagent (Biolab, Israel) according to the manufacturer's instructions. […] In each sample the 260/280 ratio, 260/230 ratio and RNA concentration were obtained by plate reader and Gen5 software (Synergy HT, BioTek, USA). For each RNA extraction procedure, the integrity of the extracted RNA was evaluated by electrophoresis on 1.2% agarose gel stained with GelRed (Biotium, USA). […]
# [3] = test system: proximal intestine epithelium; assay: Histological analysis of proximal intestine cross sections of sea bream (inner/outer perimeter ratio); conditions: 1.6% sodium butyrate, independent of dietary protein level, P<0.001, FIG. 9
# Protocol: During the 13 week trial, fish were weighed approximately every two weeks. The data were used to calculate growth rates and to adjust the daily rations of feed. At the end of the trial, 6 fish from each tank were sampled for calculating gut index and extracting their proximal intestine total RNA. Two other fish were sampled for histology and body composition. All sampling procedures were performed as described.
# Fish were euthanized with an overdose of MS2-22 (Sigma Aldrich, USA) followed by a swift decapitation and then dissected for the removal of their gastrointestinal tract. For total RNA, the 1st segment of the proximal intestine (approx. 1 cm) was cut, immediately frozen and stored at −80° C. until RNA extraction. […] For each fish, gut index was calculated using the following formula: Gut index=100×Body weight (g)/(intestine length (mm))^3.
# Standard protocol for histological analysis was implemented (Grate et al., 2003). […] Intestinal cross sections were photographed under a stereo zoom microscope (Axio Zoom.V16, Zeiss, Germany) and the inner and outer perimeter (mm) of the sections were measured using ImageJ software (imagej(dot)nih(dot)gov/ij/). […] The calculated ratio (inner perimeter/outer perimeter) for each section was then averaged for each slide/sample and analyzed for differences between treatments.
# PCNA = PCNA mRNA expression in sea bream proximal intestine (intestinal epithelial cell proliferation); conditions: 0.8% sodium butyrate diet for 9 days, 1.5 h after feeding, P<0.05, FIG. 6
# Protocol: Fish having an average weight of 14.49±0.2 g (mean±SEM) were stocked in 15 tanks at a density of 30 fish tank^−1 with 5 replicate tanks (assigned as A-E) dietary treatment^−1. […]
# as §2
# Specific real-time PCR primers (Table 6) were designed for amplifying the sea bream PepT1 (accession no. GU733710.1), PCNA (accession no. CX734891.1), CCK, Cdx1b and β-actin (accession no. AY362763.1) transcripts. Quantification of target gene transcripts of different treatments was achieved by PCR reaction mix (10 μl) containing SYBR Green dye (Quanta, Perfecta; SYBR Green FastMix, Low ROX; 95074-012), template cDNA and 500 nM of target specific primers in a quantitative PCR system (Applied Biosystems, 7500 Fast Real Time PCR System). […]
smiles,measurement,setting,value
CCCC(=O)[O-].[Na+] [sodium butyrate],PepT1 transcription levels after butyrate feeding had ceased,"PepT1 [1]; 0.8% butyrate for 8 days, FIG. 5B",remained higher than the control
same,PepT1 transcription,"PepT1 [1]; 0.8% butyrate in diet for 8 days versus control, FIG. 5A",significantly (P<0.001) increased
same,PepT1 transcription levels after butyrate feeding had ceased,"PepT1 [1]; 1.6% butyrate for 8 days, FIG. 5C",remained higher than the control
same,PepT1 transcription,"PepT1 [1]; 1.6% butyrate in diet for 8 days versus control, FIG. 5A",significantly (P<0.001) increased
same,"PepT1 transcription, increase over control","PepT1 [1]; 1.6% butyrate in diet for 8 days, FIG. 5A",more than 2 fold
same,PepT1 expression prior to the morning feeding,PepT1 [2],significantly (P<0.01) higher PepT1 expression
same,expansion of the inner to outer perimeter ratio of the proximal intestine,[3],approximately 30%
same,PCNA expression relative to control,PCNA,more than 2 fold
